Measured values as given in patent publication US11512224B2, “Water-based coating composition and production method of the same” (TOYOTA JIDOSHA KABUSHIKI KAISHA, priority 2018, dated 2022).
One block for each molecule: values may come before it.

Assay: Solubility in water at 20° C.
Conditions: for Solubility of curing catalyst in water: under atmospheric pressure at 20° C.; for Solubility of organic solvent in water: 20° C.

SMILES: C1CCC2=NCCCN2CC1.Cc1ccc(S(=O)(=O)O)cc1 [DBU salt, diazabicycloundecene p-toluenesulfonate]
- Solubility of curing catalyst in water (listed as diazabicycloundecene p-toluenesulfonate, p-toluenesulfonate): ≥ 0.5 g/100 ml
- Solubility of curing catalyst in water (p-toluenesulfonate): 5 or greater g/100 ml

- Solubility of curing catalyst in water: 5 or greater g/100 ml
- Solubility of curing catalyst in water (listed as diazabicyclononene): ≥ 0.5 g/100 ml
SMILES: C1CN=C2CCCN2C1 [DBN, diazabicyclononene]

SMILES: C1CCC2=NCCCN2CC1 [DBU, diazabicycloundecene]
- Solubility of curing catalyst in water: 5 or greater g/100 ml
- Solubility of curing catalyst in water (listed as diazabicycloundecene): ≥ 0.5 g/100 ml

- Solubility of organic solvent in water: ≥ 10 or g/100 ml
- Solubility of organic solvent in water (listed as 1-methoxy-2-propanol): ≥ 10 g/100 ml
SMILES: COCC(C)O (stereo not shown) [PGME, 1-methoxy-2-propanol]

SMILES: CC(C)O [IPA, 2-propanol]
- Solubility of organic solvent in water: ≥ 10 or g/100 ml
- Solubility of organic solvent in water (listed as 2-propanol): ≥ 10 g/100 ml
